Laboratory results as given in patent US10955415B2, “CD247 as a biomarker for assessing the effect of chemotherapeutic and biological drugs” (YISSUM RESEARCH DEVELOPMENT COMPANY OF THE HEBREW …, priority 2011, dated 2021).
“Also recorded” adds a separate entry of the source.

Legend:
MDSCs (Gr1+CD11b+) = system: MDSCs (Gr1+CD11b+); parameters: species or system mice; details: mouse, in vivo
CD3ε chain = system: CD3ε chain; parameters: species or system mice; details: mouse, in vivo
CD4+Foxp3+ Treg cells = system: CD4+Foxp3+ Treg cells; parameters: species or system mice; details: mouse, in vivo
CD247 (ζ chain) = system: CD247 (ζ chain); parameters: species or system mice; details: mouse, in vivo; for increase in the expression value of CD247 upon treatment: ip
MDSCs = format: in vivo, mice; details: spleen of BCG-inflamed mice, monotherapy, MFI
[1] = Spleen weight and size, BCG chronic inflammation mouse model; format: in vivo; details: BCG-inflamed WT-mice, 2 days after third BCG injection
Procedure: FIG. 15B. Spleen weight (left) and size (right) in etanercept-treated and untreated mice (n=7) was evaluated 2 days following the third BCG injection. *P<0.003, **P<0.002 (t-test). Data are from two independent experiments (mean and s.d.).
Induced chronic inflammation in mice was established by sustained subcutaneous injections of the heat-killed Bacille Calmette Guerin strain of Mycobacterium tuberculosis, (231141; Difco Laboratories) (BCG, 50 μg per animal/dose) once a week, for three weeks. The first two BCG administrations were mixed 1:1 with Incomplete Freund's adjuvant (IFA) (Sigma), and the second boost delivery was given with PBS. Mice sacrifice and cell isolations were performed two days after the third injection. Spleen weight was measured and cells from the spleen and peripheral blood (PBLs) were analyzed. The results represent three independent experiments.

CD247 = test: Adoptive transfer of CFSE-labeled normal splenocytes, CD247 in host and donor cells; format: in vivo, mice; details: BCG-inflamed hosts, 24 h after transfer, spleen
Procedure: CFSE-labeled splenocytes from normal mice (donor cells) were adoptively transferred into mice untreated, inflamed, and inflamed treated i.p. with irinotecan (hosts). After 24 h, splenocytes from each group were harvested and stained for CD247 expression (MFI) in CD3+ T cells within the CFSE+ (donor-cell) or CFSE− (host-cell) population. Data from three independent experiments (n=4) is presented. Statistical analyses using t test indicated significant differences at 95% Cl. Means and SEM are shown. * P<0.05. Abbreviations: Ho. (host), Do. (donor), cont. (control).
CFSE-labeled splenocytes from normal mice (donor cells) were adoptively transferred into non-inflamed, inflamed, and inflamed mice treated i.p. with 5-FU (hosts). After 24 h, splenocytes from each group were harvested and stained for CD247 expression (MFI) in CD3+ T cells within the CFSE+ (donor-cell) or CFSE− (host-cell) population. Data from three independent experiments (n=4) is presented. Statistical analyses using t test indicated significant differences at 95% Cl. Means and SEM are shown. *, P<0.05. Abbreviations: Ho. (host), Do. (donor), cont. (control).
Next, the effect of etanercept treatment on the host's immune status as well as on adoptively transferred T- and NK-cells was examined. It should be noted that adoptively transferred T- and NK-cells being a treatment that is frequently used today in different immunotherapeutic regiments for various pathologies. To this end, CFSE-labeled normal splenocytes were administered, i.v., 1 day before cell harvest, at the peak of the inflammatory response (mimicking cell mediated therapies).

[2] = system: CD11b+CD11c+ and CD11b+F4/80+ cells; test: Myeloid differentiation state in spleen (DCs, macrophages, APC maturation); format: in vivo; details: BCG-inflamed mice
Excerpt: FIG. 18A-18E. Splenocytes and PBLs from mice untreated (naïve), inflamed, or inflamed and treated with 5-FU or CPT-11 were fixed, permeabilized, and double stained for the expression of CD247 (ζ-chain) (FIGS. 18A, 18B) and CD3ε-chain (FIGS. 18D, 18E), as shown by mean fluorescence intensity (MFI), measured in gated CD3^+ cells. FIG. 18C: Splenocytes from mice, naïve, inflamed and inflamed treated with 5-FU or CPT-11, were labeled with CFSE and activated with anti-CD3 and anti-CD28 antibodies or left non-activated. The proliferative response was assessed by monitoring cell divisions of gated CFSE-labeled Thy1.2+ (CD90+) T-cells. The percent of proliferating cells was calculated and compared to steady state levels of non-activated cells per each group. Data from three independent experiments is presented (n=3). Statistical analyses using t test indicated significant differences at 95%. Means and SEM are shown. *, P<0.05; **, P<0.01. FIG. 18F-18I. For the detection of myeloid differentiation state, splenocytes from each group were stained for (18F) DC11b^+CD11c^+ cells (representing DCs), (18G) DC11b^+F4/80^+ cells (representing monocytes), (18H) CD11c^+MHCII^+CD80^+ cells (representing fully differentiated […] as antigen presenting cells) and (18I) F4/80^+MHCII^+CD80^+ cells (representing fully differentiated […] as antigen presenting cells). Data from three independent experiments (n=4) is presented. Statistical analyses using t test indicated significant differences at 95%. Means and SEM are shown. *, P<0.05; **, P<0.01; ***, P<0.001. Abbreviations: Nor. (normal), Rel. (relative), Inf. (inflamed), ce. Pro. (cell proliferation)
Isolated splenocytes and peripheral blood leukocytes (PBLs) were treated with erythrocyte lysis buffer and washed in PBS. Cells were pre-coated with anti-CD16/CD32 (Biolegend) for FcR blockage. For surface staining, cells were incubated for 30 min at 4° C. with FITC-labeled anti-Gr1, anti-CD11c, and anti-CD4; PE-labeled anti F4/80, anti-CD3ε, anti-CD45R/B220, and anti-mNKp46; and biotinylated anti-CD11b and anti-CD8 that were detected with streptavidin-Cy5 (Biolegend and eBioscience). Intracellular staining of CD247 cells was performed by subjecting the cells to fixation with paraformaldehyde (1%) for 20 min at 4° C., followed by washing and permeabilization for 10 min with saponin detergent (0.1%) at room temperature (RT). Cells were then washed and incubated with FITC-labeled monoclonal anti-CD247 (H146) (Abcam), or biotinylated monoclonal anti-CD247 (H146), which were subsequently detected with streptavidin-Cy5. FoxP3 staining was performed according to the manufacturer's instructions. Samples were analyzed using FACSCalibur with Cell Quest software (BD).

| Compound | MDSC levels in peripheral blood (PBLs) (MDSCs (Gr1+CD11b+)) | MDSC levels in the spleen (MDSCs (Gr1+CD11b+)) | CD3ε expression levels (CD3ε chain) | levels of Treg cells (CD4+Foxp3+) in spleen (CD4+Foxp3+ Treg cells) | CD247 expression in T cells, spleen (CD247 (ζ chain)) | increase in the expression value of CD247 upon treatment (CD247 (ζ chain)) | NO production by MDSCs (MDSCs) | ROS production by MDSCs (MDSCs) | CD247 expression in T cells, PBLs (CD247 (ζ chain)) | spleen size and weight [1] | CD247 expression in host and adoptively transferred donor NK cells (CD247) | CD247 expression in host and adoptively transferred donor T cells (CD247) | differentiated myeloid cells in spleen (CD11b+CD11c+ DCs, CD11b+F4/80+ macrophages) [2] |
| --- | --- | --- | --- | --- | --- | --- | --- | --- | --- | --- | --- | --- | --- |
| CS(=O)(=O)OCCCCOS(C)(=O)=O [Busulfan, 1,4-butanediol dimethanesulfonate] | significant decline; also recorded: decrease; also recorded: reduced | significant decline; also recorded: decrease; also recorded: reduced | remained uniform among the different groups | remained unchanged | initial recovery | about 23% |  |  |  |  |  |  |  |
| O=P1(N(CCCl)CCCl)NCCCO1 (stereo not shown) [Cyclophosphamide] | significantly increased; also recorded: significant accumulation | remained high; also recorded: significantly increased | remained normal | decrease | down-regulation of CD247 that was observed in the course of chronic inflammation was maintained |  | maintained high | maintained high |  |  |  |  |  |
| COc1cccc2c1C(=O)c1c(O)c3c(c(O)c1C2=O)C[C@@](O)(C(=O)CO)C[C@@H]3O[C@H]1C[C@H](N)[C@H](O)[C@H](C)O1 [Doxorubicin] | significant decline; also recorded: decrease; also recorded: reduced | significant decline; also recorded: decrease; also recorded: reduced | uniform among the different groups | not affected; also recorded: no change | clear increase | about 24% |  |  | clear increase |  |  |  |  |
| etanercept |  | decreased percentage of MDSCs |  |  |  |  |  |  |  | reduced spleen size and weight | significantly increased | significantly increased | significant increase |
